The values that follow come from patent US20090214529A9, “KINESIN INHIBITORS” (TaiGen Biotechnology Co., Ltd., priority 2007, published 2009).

Where only a bound is given, the exact number is not on record here.

This experiment concerns tumor cell. Briefly: Cytotoxicity assay (MTS). In kind it is cell-based. To be noted: 72 h; incubation for three days; read-out: IC50, tumor cell growth inhibition (MTS). The protocol:
The efficacy of a test compound in inhibiting tumor cell growth was analyzed using a MTS assay. The MTS assay is a calorimetric method for the determination of viable cells in proliferation by using a tetrazolium compound (3-(4,5-dimethylthiazol-2-yl)-5-(3-[…])-2-(4-sulfophenyl)-2H-tetrazolium, inner salt; MTS) and an electron-coupling agent (phenazine methosulfate; PMS). The MTS reagent is converted by dehydrogenase enzymes in metabolically active cells into a formazan that is soluble in a tissue culture medium.
In this assay, tumor cell suspensions (30 μl/well) were seeded into 384-well flat-bottomed tissue culture plates at an appropriate density overnight. A fresh medium (3 μl/well) containing varying concentrations of a test compound or vehicle was added to the culture followed by incubation for three days. At the end of the incubation, all plates were processed simultaneously as follows: The culture medium was aspirated, a MTS cell proliferation assay (Promega) solution (30 μl/well) was added, and the plates were incubated at 37° C. for about 2 hours. Absorbance (a parameter proportional to the cell mass) was measured at 490 nm using a Multiskan (Thermo Electron Corporation, Waltham, Mass.). Inhibition effects were expressed as corrected T/C values for each test compound according to the following equation:
T/C=(T−Blank)/(C−Blank)×100(%),
where T is the mean absorbance of the treated cells, C is the mean absorbance of the controls, and Blank is the mean absorbance of the cell free well.

In general, IC50 refers to the point on the concentration scale where inhibition reaches its midpoint. On to `CC(C)C(c1nc2c(oc3ccccc32)c(=O)n1Cc1ccccc1F)N(CCCN)C(=O)c1ccc(Br)cc1` (stereo not drawn) [Compound 28], for which the IC50 is under 30 µM.
Consider `Cc1ccc(C(=O)N(CCCN)C(c2nc3c(oc4ccccc43)c(=O)n2Cc2ccccc2O)C(C)C)cc1` (stereo not drawn) [Compound 29], for which the half-maximal inhibitory concentration (IC50) is under 30 µM.
As for `Cc1ccc(C(=O)N(CCCN)C(c2nc3c(oc4ccc(C(F)(F)F)cc43)c(=O)n2Cc2ccccc2)C(C)C)cc1` (stereo not drawn) [Compound 30], the figure is under 30 µM.
For `CCC(c1nc2c(oc3ccc(Cl)cc32)c(=O)n1Cc1ccccc1)N(CCCN)C(=O)c1ccc(C)cc1` (stereo not drawn) [Compound 31], the IC50 was under 30 µM.
As for `CCC(c1nc2c(oc3ccc(Cl)cc32)c(=O)n1Cc1ccccc1)N(CCN)C(=O)c1ccc(C)cc1` (stereo not drawn) [Compound 32], the figure is under 30 µM; as for `CCC(c1nc2c(oc3ccc(Cl)cc32)c(=O)n1Cc1ccccc1)N(CCCN)S(=O)(=O)c1ccc(C)cc1` (stereo not drawn) [Compound 33], under 30 µM.
In the case of `CCC(c1nc2c(oc3ccc(Cl)cc32)c(=O)n1Cc1ccccc1)N(CCN)S(=O)(=O)c1ccc(C)cc1` (stereo not drawn) [Compound 34], the IC50 was under 30 µM.
As for `Cc1ccc(C(=O)N(CCCN)C(c2nc3c(oc4ccc(Cl)cc43)c(=O)n2Cc2ccccc2)C(C)C)cc1` (stereo not drawn) [Compound 35], the figure is under 30 µM.
As for `Cc1ccc(C(=O)N(CCN)C(c2nc3c(oc4ccc(Br)cc43)c(=O)n2Cc2ccccc2)C(C)C)cc1` (stereo not drawn) [Compound 37], the half-inhibitory concentration (IC50) is under 30 µM.
As for `Cc1ccc(C(=O)N(CCCN)C(c2nc3c(oc4ccc(Br)cc43)c(=O)n2Cc2ccccc2)C(C)C)cc1` (stereo not drawn) [Compound 38], the figure is under 30 µM; as for `Cc1ccc(C(=O)N(CCN)C(c2nc3c(oc4ccc(C)cc43)c(=O)n2Cc2ccccc2)C(C)C)cc1` (stereo not drawn) [Compound 39], under 30 µM; as for `Cc1ccc(C(=O)N(CCCN)C(c2nc3c(oc4ccc(C)cc43)c(=O)n2Cc2ccccc2)C(C)C)cc1` (stereo not drawn) [Compound 40], under 30 µM.
In the case of `Cc1ccc(C(=O)N(CCCN)C(c2nc3c(oc4ccc(Cl)cc43)c(=O)n2Cc2ccc(Br)s2)C(C)C)cc1` (stereo not drawn) [Compound 41], the IC50 is under 30 µM.
As for `Cc1ccc(C(=O)N(CCCN)C(c2nc3c(oc4ccc(Cl)cc43)c(=O)n2Cc2cccs2)C(C)C)cc1` (stereo not drawn) [Compound 43], the figure is under 30 µM; as for `Cc1ccc(C(=O)N(CCN)C(c2nc3c(oc4ccc(Cl)cc43)c(=O)n2Cc2cccs2)C(C)C)cc1` (stereo not drawn) [Compound 44], under 30 µM.
In the case of `Cc1ccc(C(=O)N(CCCN)C(c2nc3c(oc4ccc(Cl)cc43)c(=O)n2Cc2ccc(Cl)s2)C(C)C)cc1` (stereo not drawn) [Compound 45], the IC50 was under 30 µM.
As for `Cc1ccc(C(=O)N(CCN)C(c2nc3c(oc4ccc(Cl)cc43)c(=O)n2Cc2ccc(Cl)s2)C(C)C)cc1` (stereo not drawn) [Compound 46], the figure is under 30 µM; as for `Cc1ccc(C(=O)N(CCCN)C(c2nc3c(oc4ccc(Cl)cc43)c(=O)n2Cc2ccc(C#N)s2)C(C)C)cc1` (stereo not drawn) [Compound 47], under 30 µM.
As for `Cc1ccc(C(=O)N(CCN)C(c2nc3c(oc4ccc(Cl)cc43)c(=O)n2Cc2ccc(C#N)s2)C(C)C)cc1` (stereo not drawn) [Compound 48], the figure is under 30 µM; as for `Cc1ccc(C(=O)N(CCN)C(c2nc3c(oc4ccc(Cl)cc43)c(=O)n2Cc2cc(Br)cs2)C(C)C)cc1` (stereo not drawn) [Compound 49], under 30 µM.
As for `CCCC(c1nc2c(oc3ccccc32)c(=O)n1Cc1ccccc1)N(CCCN)C(=O)c1ccc(C)cc1` (stereo not drawn) [Compound 50], the IC50 is under 30 µM.
Turning to `CCCC(c1nc2c(oc3ccccc32)c(=O)n1Cc1ccccc1)N(CCN)C(=O)c1ccc(C)cc1` (stereo not drawn) [Compound 51], the half-maximal inhibitory concentration (IC50) is under 30 µM.
Consider `Cc1ccc(C(=O)N(CCN)C(c2nc3c(oc4ccc(Cl)cc43)c(=O)n2Cc2ccccc2)C(C)C)cn1` (stereo not drawn) [Compound 56], for which the 50% inhibitory concentration (IC50) is under 30 µM.
As for `CCCC(c1nc2c(oc3ccccc32)c(=O)n1Cc1ccccc1)N(CC(O)CN)C(=O)c1ccc(C)cc1` (stereo not drawn) [Compound 58], the figure is under 30 µM; as for `Cc1ccc(C(=O)N(CCN)C(c2nc3c(oc4ccc(Br)cc43)c(=O)n2Cc2ccccc2)C(C)C)cn1` (stereo not drawn) [Compound 59], under 30 µM.
Turning to `Cc1ccc(C(=O)N(CCN)C(c2nc3c(oc4cccc(F)c43)c(=O)n2Cc2ccccc2)C(C)C)cc1` (stereo not drawn) [Compound 60], the 50% inhibitory concentration (IC50) was under 30 µM.
As for `Cc1ccc(C(=O)N(CCCN)C(c2nc3c(oc4cccc(F)c43)c(=O)n2Cc2ccccc2)C(C)C)cc1` (stereo not drawn) [Compound 61], the figure is under 30 µM.
As for `Cc1ccc(C(=O)N(CCCN)C(c2nc3c(oc4ccc(F)cc43)c(=O)n2Cc2ccccc2)C(C)C)cc1` (stereo not drawn) [Compound 63], the figure is under 30 µM.
As for `CC(C)C(c1nc2c(oc3ccc(F)cc32)c(=O)n1Cc1ccccc1)N(CCN)C(=O)c1ccc(Cl)cc1` (stereo not drawn) [Compound 64], the figure is under 30 µM; as for `CC(C)C(c1nc2c(oc3ccc(F)cc32)c(=O)n1Cc1ccccc1)N(CCN)C(=O)c1ccc(Br)cc1` (stereo not drawn) [Compound 65], under 30 µM.
For `CC(C)C(c1nc2c(oc3ccc(F)cc32)c(=O)n1Cc1ccc(Cl)s1)N(CCN)C(=O)c1ccc(Cl)cc1` (stereo not drawn) [Compound 68], the 50% inhibitory concentration (IC50) is under 30 µM.
As for `Cc1ccc(C(=O)N(CCN)C(c2nc3c(oc4ccc(F)cc43)c(=O)n2Cc2cc(Br)cs2)C(C)C)cc1` (stereo not drawn) [Compound 69], the figure is under 30 µM.
As for `Cc1ccc(C(=O)N(CCCN)C(c2nc3c(oc4ccc(F)cc43)c(=O)n2Cc2ccc(Br)s2)C(C)C)cc1` (stereo not drawn) [Compound 70], the figure is under 30 µM; as for `Cc1ccc(C(=O)N(CCCN)C(c2nc3c(oc4ccc(F)cc43)c(=O)n2Cc2ccc(Cl)s2)C(C)C)cc1` (stereo not drawn) [Compound 71], under 30 µM.
As to `Cc1ccc(C(=O)N(CCCN)C(c2nc3c(oc4ccc(F)cc43)c(=O)n2Cc2ccc(C#N)s2)C(C)C)cc1` (stereo not drawn) [Compound 72], the IC50 was under 30 µM.
As for `Cc1ccc(C(=O)N(CCCN)C(c2nc3c(oc4ccc(F)cc43)c(=O)n2Cc2cc(Br)cs2)C(C)C)cc1` (stereo not drawn) [Compound 73], the figure is under 30 µM; as for `Cc1ccc(C(=O)N(CCCN)C(c2nc3c(oc4ccc(F)cc43)c(=O)n2Cc2cccs2)C(C)C)cc1` (stereo not drawn) [Compound 74], under 30 µM.
As for `Cc1ccc(C(=O)N(CCN)C(c2nc3c(oc4ccc(F)cc43)c(=O)n2Cc2ccsc2)C(C)C)cc1` (stereo not drawn) [Compound 75], the figure is under 30 µM; as for `Cc1ccc(C(=O)N(CCCN)C(c2nc3c(oc4ccc(F)cc43)c(=O)n2Cc2ccsc2)C(C)C)cc1` (stereo not drawn) [Compound 76], under 30 µM; as for `Cc1ccc(C(=O)N(CCN)C(c2nc3c(oc4ccc(Cl)cc43)c(=O)n2Cc2ccsc2)C(C)C)cc1` (stereo not drawn) [Compound 77], under 30 µM.
As for `Cc1ccc(C(=O)N(CCCN)C(c2nc3c(oc4ccc(Cl)cc43)c(=O)n2Cc2ccsc2)C(C)C)cc1` (stereo not drawn) [Compound 78], the figure is under 30 µM.
With `Cc1ccc(C(=O)N(CCN)C(c2nc3c(oc4ccc(F)cc43)c(=O)n2Cc2cccc(F)c2)C(C)C)cc1` (stereo not drawn) [Compound 79], the IC50 is under 30 µM.
For the compound `Cc1ccc(C(=O)N(CCCN)C(c2nc3c(oc4ccc(F)cc43)c(=O)n2Cc2cccc(F)c2)C(C)C)cc1` (stereo not drawn) [Compound 80], the IC50 is under 30 µM.
Consider `Cc1ccc(C(=O)N(CCCN)C(c2nc3c(oc4ccc(F)cc43)c(=O)n2Cc2ccc(Br)o2)C(C)C)cc1` (stereo not drawn) [Compound 82], for which the IC50 was under 30 µM.
As for `Cc1ccc(C(=O)N(CCCN)C(c2nc3c(oc4ccc(F)cc43)c(=O)n2Cc2cc(C)cs2)C(C)C)cc1` (stereo not drawn) [Compound 85], the figure is under 30 µM; as for `Cc1ccc(C(=O)N(CCCN)C(c2nc3c(oc4ccc(F)cc43)c(=O)n2Cc2ccc(C(F)(F)F)o2)C(C)C)cc1` (stereo not drawn) [Compound 87], under 30 µM.
As for `COC(=O)c1ccc(Cn2c(C(C(C)C)N(CCN)C(=O)c3ccc(C)cc3)nc3c(oc4ccc(F)cc43)c2=O)s1` (stereo not drawn) [Compound 88], the figure is under 30 µM.
As for `COC(=O)c1ccc(Cn2c(C(C(C)C)N(CCCN)C(=O)c3ccc(C)cc3)nc3c(oc4ccc(F)cc43)c2=O)s1` (stereo not drawn) [Compound 89], the figure is under 30 µM; as for `Cc1ccc(C(=O)N(CCN)C(c2nc3c(oc4ccc(F)cc43)c(=O)n2Cc2ccc(Cl)o2)C(C)C)cc1` (stereo not drawn) [Compound 90], under 30 µM.
Consider `Cc1ccc(C(=O)N(CCCN)C(c2nc3c(oc4ccc(F)cc43)c(=O)n2Cc2ccc(Cl)o2)C(C)C)cc1` (stereo not drawn) [Compound 91], for which the IC50 was under 30 µM.
Regarding `Cc1ccc(C(=O)N(CCN)C(c2nc3c(oc4ccc(F)cc43)c(=O)n2Cc2cc(Br)co2)C(C)C)cc1` (stereo not drawn) [Compound 92], the IC50 was under 30 µM.
As for `Cc1ccc(C(=O)N(CCCN)C(c2nc3c(oc4ccc(F)cc43)c(=O)n2Cc2cc(Br)co2)C(C)C)cc1` (stereo not drawn) [Compound 93], the figure is under 30 µM; as for `Cc1ccc(C(=O)N(CCN)C(c2nc3c(oc4ccc(Cl)cc43)c(=O)n2Cc2cc(C)cs2)C(C)C)cc1` (stereo not drawn) [Compound 94], under 30 µM.
As for `Cc1ccc(C(=O)N(CCCN)C(c2nc3c(oc4ccc(Cl)cc43)c(=O)n2Cc2cc(C)cs2)C(C)C)cc1` (stereo not drawn) [Compound 95], the figure is under 30 µM; as for `Cc1ccc(C(=O)N(CCN)C(c2nc3c(oc4ccc(Cl)cc43)c(=O)n2Cc2cccc(F)c2)C(C)C)cc1` (stereo not drawn) [Compound 96], under 30 µM; as for `Cc1ccc(C(=O)N(CCCN)C(c2nc3c(oc4ccc(Cl)cc43)c(=O)n2Cc2cccc(F)c2)C(C)C)cc1` (stereo not drawn) [Compound 97], under 30 µM.
`Cc1ccc(C(=O)N(CCN)C(c2nc3c(oc4ccc(F)cc43)c(=O)n2Cc2ccc(C(N)=O)s2)C(C)C)cc1` (stereo not drawn) [Compound 98]: the IC50 was under 30 µM.
